Type in all cases: cell-based
One test addresses T1, human P2X4 receptor (Homo sapiens, UniProt Q99571).
T1 construct: expressed in transfected cells; host or cells: human 1321N1 astrocytoma cells
T1 sequence (Q99571 1-388): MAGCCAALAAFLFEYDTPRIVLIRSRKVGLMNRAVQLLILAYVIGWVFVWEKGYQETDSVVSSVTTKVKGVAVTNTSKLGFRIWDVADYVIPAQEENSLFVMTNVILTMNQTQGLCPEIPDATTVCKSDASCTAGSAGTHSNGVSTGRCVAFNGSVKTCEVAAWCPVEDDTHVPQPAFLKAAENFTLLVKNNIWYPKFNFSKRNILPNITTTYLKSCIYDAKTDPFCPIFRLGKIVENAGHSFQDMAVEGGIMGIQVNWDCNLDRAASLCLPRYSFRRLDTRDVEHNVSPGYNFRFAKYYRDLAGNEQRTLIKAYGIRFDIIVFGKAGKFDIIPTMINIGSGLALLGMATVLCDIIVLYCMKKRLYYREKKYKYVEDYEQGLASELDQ
Description: Ca2+‐flux assay for the hP2X4 receptor. The conditions noted are these: for inhibition at 10 µM: read-out: % Inhibition of P2X4R at 10 µM compounds’ concentration. As to the method: Human 1321N1 astrocytoma cells stably expressing the human P2X4 receptor (generated in‐house) were cultured in Dulbecco's Modified Eagle Medium supplemented with 9% (v/v) FCS, 1% (v/v) Penicillin/Streptomycin (10000 I.U./mL, 10 mg/mL in 0.9% NaCl) and puromycin (1 µg/mL) as a selection antibiotic at 37°C and 5% CO2. Cells were subcultured in cell culture 75 cm^2 flasks and split every 2–4 days (1:5; 1:6) once confluent.
1321N1 cells stably expressing human P2X4 receptor were seeded into black‐walled 96‐well plates (Thermo Fisher Scientific) at 2.5 × 10^4 cells/well and incubated at 37°C for 24–48 h. All test compounds were diluted in assay buffer solution (SBS: 135 mM NaCl; 5 mM KCl; 1 mM MgCl2.6 H2O; 1.8 mM CaCl2; 5.6 mM D‐Glucose; 10 mM HEPES, 0.1% (m/v) BSA, 0.05% (m/v) gelatine, 2.3 mM probenecid). The culture medium was removed, and 100 µL of 4 μM fluorescent Ca^2+ indicator Calbryte520AM in SBS was added and incubated at 37°C for 1 h. The dye solution was then removed, 100 µL of SBS solution and 50 µL of antagonist dilutions (10^–5–10^–9 M) in SBS were added, and the cells were incubated at room temperature for an extra 30 min. Finally, 50 µL of ATP (at a concentration of the previously determined EC50‐ value) was added by using FlexStation 3 Multi‐Mode Microplate Reader (Molecular Devices, San Jose, CA, USA, Software SoftMax7 Pro). The changes in intracellular Ca^2+ ion concentrations were monitored over 200 s (20 s baseline) by measuring the fluorescence signal at λ ex = 494 nm and λ em = 516 nm ([…] cut‐off). The concentration‐dependent decrease in Ca^2+‐flux, expressed as RFU, was plotted against the concentrations of the compounds.

Test [1] deals with HGC‐27 (gastric carcinoma). Description: Resazurin cell viability assay, HGC‐27. The conditions noted are these: 50 µM, 72 h, mean ± SD, n = 3; for inhibition at 50 µM: Homo sapiens, HGC-27, read-out: % Cellular growth inhibition (at 50 µM) HGC‐27. As to the method: (§1) The tongue squamous cell carcinoma cell line CAL‐27 (ATCC CRL‐2095), breast carcinoma BT‐20 (ATCC HTB‐19), gastric carcinoma HGC‐27 (BCRJ Code 0310), and normal oral fibroblast OHMF (culture of fibroblasts derived from human oral healthy mucosa, approved by the Research Ethics Committee of the University of São Paulo, Campus of Ribeirão Preto, Brazil (with protocol number 049) were cultured in DMEM medium (DMEM, Sigma‐Aldrich, St. Louis, MO, USA) supplemented with 10% fetal bovine serum and a solution of penicillin (100 U/mL) and streptomycin (100 μg/mL). The cultures were maintained in a humidified incubator with 5% CO₂ at 37°C.
(§2) Cell viability was analyzed using the resazurin assay. For this, cells were seeded in 96‐well plates (1 × 10^3 cells per well) and incubated at 37°C with 5% CO₂ overnight for cell adhesion. Subsequently, the cells were treated with different compounds (0–50 µM) for 72 h. After treatment, the medium was replaced with phenol‐free DMEM medium (Sigma‐Aldrich) containing resazurin at a concentration of 44 µM (Sigma‐Aldrich). After incubation for 4 h at 37°C, fluorescence detection was performed (excitation 530/25 nm, emission 590/35 nm) using a microplate fluorimeter (Synergy 2, Biotek). Initial cell growth inhibition assays were performed in triplicate or quadruplicate, while IC50 determinations were conducted in triplicate. Data were plotted, and IC₅₀ values were determined by nonlinear regression using GraphPad Prism software 9.0.
(§3) ^a Cell viability was assessed using the resazurin assay after 72 hours of compound treatment. Fluorescence was measured to estimate % of cellular growth inhibition at 50 µM values, based on triplicate experiments.
(§4) ^b IC50 values were determined using the same resazurin-based assay, with fluorescence measurements performed after 72 hours of treatment. These experiments were carried out in triplicate.
(Resazurin is reduced to fluorescent resorufin, in cell work by metabolically active cells.)

A further test concerns BT‐20 (breast carcinoma). Description: Resazurin cell viability assay, BT‐20. The conditions noted are these: 50 µM, 72 h, mean ± SD, n = 3; for inhibition at 50 µM: Homo sapiens, BT-20, read-out: % Cellular growth inhibition (at 50 µM) BT‐20. As to the method:
as §1, §2, §3, §4

Test [2] concerns CAL‐27, BT‐20 and HGC‐27 cancer cell lines. Description: Resazurin antiproliferative screening, cancer cell line panel. To be noted: 50 μM, 70% inhibition threshold. As to the method:
as §1, §2

The target of a further test is T2, human P2X7 receptor (Homo sapiens, UniProt Q99572).
T2 construct: host or cells: HEK-293
T2 sequence (Q99572 1-595): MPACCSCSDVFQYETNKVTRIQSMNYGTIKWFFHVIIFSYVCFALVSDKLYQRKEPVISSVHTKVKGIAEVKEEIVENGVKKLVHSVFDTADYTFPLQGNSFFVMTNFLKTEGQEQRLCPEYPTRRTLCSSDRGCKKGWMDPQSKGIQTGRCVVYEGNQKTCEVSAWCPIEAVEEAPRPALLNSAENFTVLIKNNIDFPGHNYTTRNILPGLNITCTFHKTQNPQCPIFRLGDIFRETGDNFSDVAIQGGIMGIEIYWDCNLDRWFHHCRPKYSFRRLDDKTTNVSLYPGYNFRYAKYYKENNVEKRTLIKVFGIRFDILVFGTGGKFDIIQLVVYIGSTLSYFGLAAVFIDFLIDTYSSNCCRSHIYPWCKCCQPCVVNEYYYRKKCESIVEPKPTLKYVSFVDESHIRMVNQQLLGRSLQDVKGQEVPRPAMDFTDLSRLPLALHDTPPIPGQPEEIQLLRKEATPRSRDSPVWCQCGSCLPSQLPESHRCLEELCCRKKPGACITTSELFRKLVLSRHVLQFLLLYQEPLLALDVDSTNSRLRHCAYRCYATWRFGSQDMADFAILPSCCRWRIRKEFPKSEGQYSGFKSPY
Description: YO‐PRO‐1 dye uptake assay for the P2X7 receptor. To be noted: for inhibition at 10 µM: P2X7, read-out: % Inhibition of P2X7R at 10 µM compounds’ concentration. As to the method:
HEK‐293 cell lines stably expressing human P2X7 receptor (hP2X7R‐HEK‐293, B'SYS GmbH, Witterswil, Switzerland) were maintained in a 50/50 mix of Dulbecco's Modified Eagle Medium and F12 medium (DMEM/F12) supplemented with 9% (v/v) FCS, 1% (v/v) Penicillin/Streptomycin (10000 I.U./mL, 10 mg/mL in 0.9% NaCl) and G418 (100 µg/mL) at 37°C and 5% CO2. Cells were subcultured in cell culture 75 cm^2 flasks and split every 2‐4 days (1:3; 1:6; 1:10) once confluent.
HEK‐293 cell lines stably expressing human P2X7 receptor were seeded into black‐walled Nunc 96‐well optical bottom plates (Thermo Fisher Scientific) at 2.0–4.0 × 10^4 cells/well and incubated at 37°C for 24–48 h. After removing the culture medium, cells were washed with 100 µL wash buffer (280 mM Sucrose; 5.6 mM KCl; 0.5 mM CaCl2; 10 mM D‐Glucose; 10 mM HEPES; 5 mM N‐Methyl‐D‐glucamine (pH 7.4)). Then, 50 µL assay buffer (280 mM Sucrose; 6.4 mM KCl, 10 mM D‐Glucose; 10 mM HEPES; 5.0 mM N‐Methyl‐D‐glucamine (pH 7.4)) and 50 µL of antagonist dilutions (10^–5–10^–9 M) in assay buffer were added, and the cells were incubated at 37°C for 30 min. […] Finally, the uptake of YO‐PRO‐1 dye was recorded in a 9‐point‐well scan by following the fluorescence change using a FlexStation 3 Multi‐Mode Microplate Reader (Molecular Devices, San Jose, CA, USA, Software SoftMax7 Pro, endpoint protocol, well scan with reading pattern “fill scan”, λ ex = 485 nm, λ em = 535 nm). To determine the concentration‐dependent uptake inhibition by antagonists, the YO‐PRO‐1 uptake, expressed as RFU, was plotted against the concentrations of the compounds.

The subject of the next test is CAL‐27 (oral carcinoma). Description: Resazurin cell viability assay, CAL‐27. To be noted: 50 µM, 72 h, mean ± SD, n = 3; for inhibition at 50 µM: Homo sapiens, CAL-27, read-out: % Cellular growth inhibition (at 50 µM) CAL‐27. As to the method:
as §1, §2, §3, §4

Structures are written as SMILES.

Regarding `CCOC(=O)c1cn2cc(OC)ccc2c1C(=O)c1cc(OC)c(OC)c(OC)c1` [Compound 8d, Ethyl [6‐methoxy‐1‐(3,4,5‐trimethoxybenzoyl)indolizine]‐2‐carboxylate], the “% Inhibition of P2X4R at 10 µM compounds’ concentration” value on human P2X4 receptor (10 μM) was determined as 2%. For the same compound, the “% Cellular growth inhibition (at 50 µM) HGC‐27” value in test [1] was 44 ± 1.9%. Also, the “% Cellular growth inhibition (at 50 µM) BT‐20” value with BT‐20 (breast carcinoma) is given as 55 ± 4.7%. Besides, in test [2], the “level of inhibition in the 50 µM screening” value is recorded as not above 70%. The “% Inhibition of P2X7R at 10 µM compounds’ concentration” value on human P2X7 receptor (10 μM) was -10%. The “% Cellular growth inhibition (at 50 µM) CAL‐27” value in the test with CAL‐27 (oral carcinoma) came to 66 ± 0.8%.
Take `O=C(c1ccc(Cl)c(Cl)c1)c1ccn2ccccc12` [Compound 6e, (3,4‐dichlorophenyl)(indolizin‐1‐yl)methanone]: the inhibition at 10 µM on human P2X4 receptor was found to be 9%; on human P2X7 receptor it was 7%. Besides, the inhibition at 50 µM was 41 ± 1% in test [1], 40 ± 0.4% with BT‐20 (breast carcinoma) and 42 ± 0.8% with CAL‐27 (oral carcinoma).
The corresponding values for `COc1ccc2c(C(=O)c3ccc(C)cc3)ccn2c1` [Compound 7c, (6‐methoxyindolizin‐1‐yl)(p‐tolyl)methanone] are -2%, -9%, 13 ± 0.7%, 15 ± 0.5% and 20 ± 0.7%.
With `CCCCCc1cn2cc(OC)ccc2c1C(=O)c1cc(OC)c(OC)c(OC)c1` [Compound 8i, (6‐methoxy‐2‐pentylindolizin‐1‐yl)(3,4,5‐trimethoxyphenyl)methanone], the inhibition at 10 µM was -1% on human P2X4 receptor and 6% on human P2X7 receptor. Moreover, the inhibition at 50 µM turned out to be 61 ± 1.5% in test [1], 38 ± 3.5% in the test on BT‐20 (breast carcinoma) and 57 ± 2.5% in the test with CAL‐27 (oral carcinoma).

Source of the values: publication PMC12673918, “Design, Synthesis, and Selective Antiproliferative Activity of Indolizine Derivatives as Microtubule Destabilizers” (Archiv Der Pharmazie, 2025).
